Data taken from ChEMBL document CHEMBL3885861, “Open TG-GATES”.

Species on record: Rattus norvegicus
Experiment: Open TG-GATES - Regimen: Daily Repeat
Type: toxicity, organism-based, Sprague-Dawley
Set-up: regimen Daily Repeat, gender Male, age 6 weeks
Settings: in vivo, po, route gavage; for Eos / Fbg / Hb / Ht / Lym / MCH / MCHC / MCV / Mono / PT / Plat / RBC / Ret / WBC / APTT / Bas: tissue Blood; for KIDNEY_L / KIDNEY_R / KIDNEY_TOTAL: tissue Kidney; for ALP / ALT / AST / BUN / CRE / DBIL / GLC / IP / K / LDH / Na / PL / RALB / TBIL / TC / TG / TP / gamma-GTP / Ca: tissue Plasma
[1] = 60 mg/kg, 72 h, dose level Middle, time 3 day
[2] = 60 mg/kg, […], dose level Middle, time 7 day
[3] = 60 mg/kg, […], dose level Middle, time 14 day
[4] = 60 mg/kg, […], dose level Middle, time 28 day
[5] = 200 mg/kg, 72 h, dose level High, time 3 day
[6] = 200 mg/kg, […], dose level High, time 7 day
[7] = 200 mg/kg, […], dose level High, time 14 day
[8] = 200 mg/kg, […], dose level High, time 28 day

## CC(C)Cc1ccc(C(C)C(=O)O)cc1 (stereo not given) [IBUPROFEN]
[1]
  Eos: 0.8%
  Fbg: 340.8 mg/dL
  Hb: 13.2 g/dL
  Ht: 39%
  Lym: 73.8%
  MCH: 21 pg
  MCHC: 33.9%
  MCV: 61.9 fL
  Mono: 2.6%
  PT: 16 s
  Plat: 115.2 x10_4/uL
  RBC: 629.8 x10_4/ul
  Ret: 6.7%
  WBC: 115.1 x10_2/uL
  KIDNEY_L: 0.9 g
  KIDNEY_R: 1 g
  KIDNEY_TOTAL: 1.9 g
  ALP: 1603.6 IU/L
  ALT: 45 IU/L
  AST: 80.4 IU/L
  BUN: 17.8 mg/dL
  CRE: 0.2 mg/dL
  DBIL: 0 mg/dL
  GLC: 184.6 mg/dL
  IP: 7.2 mg/dL
  K: 4.4 meq/L
  LDH: 237 IU/L
  Na: 141.4 meq/L
  PL: 138.4 mg/dL
  RALB: 2.9 g/dL
  TBIL: 0.002 mg/dL
  TC: 73.4 mg/dL
  TG: 130.8 mg/dL
  TP: 5.4 g/dL
  gamma-GTP: 1.4 IU/L
[2]
  TERMINAL_BW: 253.3 g
  APTT: 20.6 s
  Bas: 0%
  Eos: 1%
  Fbg: 313.2 mg/dL
  Hb: 12.9 g/dL
  Ht: 37.4%
  Lym: 68.6%
  MCH: 21.3 pg
  MCHC: 34.4%
  MCV: 62 fL
  Mono: 3%
  PT: 15.8 s
  Plat: 132.1 x10_4/uL
  RBC: 605 x10_4/ul
  Ret: 8.2%
  WBC: 133.5 x10_2/uL
  KIDNEY_L: 1.1 g
  KIDNEY_R: 1.1 g
  KIDNEY_TOTAL: 2.1 g
  ALP: 1376 IU/L
  ALT: 44.2 IU/L
  AST: 78 IU/L
  BUN: 18.6 mg/dL
  CRE: 0.2 mg/dL
  DBIL: 0 mg/dL
  GLC: 188.4 mg/dL
  IP: 7.3 mg/dL
  K: 4 meq/L
  LDH: 187.6 IU/L
  Na: 139.2 meq/L
  PL: 154.4 mg/dL
  RALB: 3 g/dL
  TBIL: 0.004 mg/dL
  TC: 75.6 mg/dL
  TG: 136.4 mg/dL
  TP: 5.4 g/dL
  gamma-GTP: 2.4 IU/L
[3]
  TERMINAL_BW: 297.5 g
  APTT: 23.6 s
  Bas: 0%
  Eos: 1%
  Fbg: 326.2 mg/dL
  Ht: 41%
  Lym: 75.8%
  MCHC: 33.9%
  MCV: 61.4 fL
  Mono: 2.8%
  PT: 16.1 s
  RBC: 670.4 x10_4/ul
  Ret: 5.7%
  WBC: 126.7 x10_2/uL
  KIDNEY_L: 1.2 g
  KIDNEY_R: 1.2 g
  KIDNEY_TOTAL: 2.4 g
  ALP: 1198.6 IU/L
  ALT: 41.2 IU/L
  AST: 69.2 IU/L
  CRE: 0.2 mg/dL
  DBIL: 0 mg/dL
  GLC: 189.4 mg/dL
  IP: 8.1 mg/dL
  K: 4.1 meq/L
  LDH: 147.6 IU/L
  Na: 141 meq/L
  PL: 154 mg/dL
  RALB: 3 g/dL
  TBIL: 0.004 mg/dL
  TC: 76.6 mg/dL
  TG: 139 mg/dL
  TP: 5.6 g/dL
  gamma-GTP: 2.2 IU/L
[4]
  TERMINAL_BW: 379.8 g
  APTT: 24.2 s
  Bas: 0%
  Eos: 1.8%
  Fbg: 333 mg/dL
  Hb: 14.8 g/dL
  Ht: 43.5%
  Lym: 75.2%
  MCH: 19 pg
  MCHC: 34%
  MCV: 56 fL
  Mono: 1.8%
  Plat: 102 x10_4/uL
  RBC: 777.2 x10_4/ul
  Ret: 2.8%
  WBC: 93.9 x10_2/uL
  KIDNEY_L: 1.3 g
  KIDNEY_R: 1.4 g
  KIDNEY_TOTAL: 2.7 g
  ALP: 1187.4 IU/L
  ALT: 40.8 IU/L
  AST: 67.8 IU/L
  BUN: 20 mg/dL
  CRE: 0.2 mg/dL
  Ca: 10.4 mg/dL
  DBIL: 0 mg/dL
  GLC: 186.2 mg/dL
  IP: 6.7 mg/dL
  K: 3.9 meq/L
  LDH: 150.6 IU/L
  Na: 142.4 meq/L
  PL: 147 mg/dL
  RALB: 3.2 g/dL
  TBIL: 0.002 mg/dL
  TC: 71.8 mg/dL
  TG: 139 mg/dL
  TP: 6 g/dL
  gamma-GTP: 2.6 IU/L
[5]
  TERMINAL_BW: 206.3 g
  APTT: 19.6 s
  Bas: 0%
  Eos: 1%
  Fbg: 465.4 mg/dL
  Hb: 9.9 g/dL
  Ht: 29.9%
  Lym: 66.2%
  MCH: 21.1 pg
  MCHC: 33.2%
  MCV: 63.7 fL
  Mono: 4.8%
  PT: 15.1 s
  Plat: 111.5 x10_4/uL
  RBC: 472.2 x10_4/ul
  Ret: 11%
  WBC: 175.1 x10_2/uL
  KIDNEY_L: 0.9 g
  KIDNEY_R: 1 g
  KIDNEY_TOTAL: 1.9 g
  ALP: 841.6 IU/L
  ALT: 34.4 IU/L
  AST: 59.4 IU/L
  BUN: 16.2 mg/dL
  CRE: 0.1 mg/dL
  DBIL: 0 mg/dL
  GLC: 171 mg/dL
  IP: 7.9 mg/dL
  K: 4.5 meq/L
  LDH: 122.6 IU/L
  Na: 140.8 meq/L
  PL: 147.2 mg/dL
  RALB: 2.4 g/dL
  TBIL: 0.004 mg/dL
  TC: 86 mg/dL
  TG: 116.2 mg/dL
  TP: 4.8 g/dL
  gamma-GTP: 1.6 IU/L
[6]
  TERMINAL_BW: 228.5 g
  APTT: 20.3 s
  Bas: 0%
  Eos: 1.4%
  Fbg: 360.2 mg/dL
  Hb: 9.5 g/dL
  Ht: 29.8%
  Lym: 65.6%
  MCH: 21.1 pg
  MCV: 66.4 fL
  Mono: 3.6%
  PT: 16.4 s
  Plat: 198 x10_4/uL
  RBC: 450 x10_4/ul
  Ret: 20.9%
  WBC: 213.7 x10_2/uL
  KIDNEY_L: 1 g
  KIDNEY_R: 1 g
  KIDNEY_TOTAL: 2.1 g
  ALP: 793 IU/L
  AST: 63 IU/L
  BUN: 18.6 mg/dL
  CRE: 0.2 mg/dL
  DBIL: 0 mg/dL
  GLC: 179.6 mg/dL
  IP: 7.8 mg/dL
  K: 4.3 meq/L
  LDH: 145 IU/L
  Na: 140.4 meq/L
  PL: 161.6 mg/dL
  RALB: 2.7 g/dL
  TBIL: 0.002 mg/dL
  TC: 84 mg/dL
  TG: 148.6 mg/dL
  TP: 5.1 g/dL
  gamma-GTP: 2 IU/L
[7]
  TERMINAL_BW: 217 g
  APTT: 18.9 s
  Bas: 0%
  Eos: 1.2%
  Fbg: 455.2 mg/dL
  Hb: 6.4 g/dL
  Ht: 23.2%
  Lym: 56.6%
  MCH: 17.8 pg
  MCHC: 27.3%
  MCV: 65.3 fL
  Mono: 5%
  PT: 16.5 s
  Plat: 274.3 x10_4/uL
  RBC: 354.6 x10_4/ul
  Ret: 36.9%
  WBC: 225.9 x10_2/uL
  KIDNEY_L: 1 g
  KIDNEY_R: 1.1 g
  KIDNEY_TOTAL: 2.1 g
  ALP: 502.2 IU/L
  ALT: 25.6 IU/L
  AST: 55.2 IU/L
  BUN: 15.4 mg/dL
  CRE: 0.2 mg/dL
  Ca: 10.2 mg/dL
  DBIL: 0 mg/dL
  GLC: 159.6 mg/dL
  IP: 8.4 mg/dL
  K: 4.4 meq/L
  LDH: 145.8 IU/L
  Na: 140.4 meq/L
  PL: 167.4 mg/dL
  RALB: 2.2 g/dL
  TBIL: 0.004 mg/dL
  TC: 81.2 mg/dL
  TG: 239.2 mg/dL
  TP: 4.8 g/dL
  gamma-GTP: 2.6 IU/L
[8]
  TERMINAL_BW: 319 g
  APTT: 19.1 s
  Bas: 0%
  Eos: 2.2%
  Fbg: 434.8 mg/dL
  Hb: 7.6 g/dL
  Lym: 48.8%
  MCH: 17.5 pg
  MCHC: 28%
  MCV: 62.7 fL
  Mono: 3%
  PT: 16.6 s
  Plat: 195.7 x10_4/uL
  RBC: 433.5 x10_4/ul
  WBC: 190.5 x10_2/uL
  KIDNEY_L: 1.4 g
  KIDNEY_R: 1.4 g
  KIDNEY_TOTAL: 2.8 g
  ALP: 493.2 IU/L
  ALT: 30 IU/L
  AST: 64 IU/L
  BUN: 18 mg/dL
  CRE: 0.2 mg/dL
  Ca: 10.4 mg/dL
  DBIL: 0 mg/dL
  GLC: 164.2 mg/dL
  IP: 7 mg/dL
  K: 4.2 meq/L
  LDH: 158.8 IU/L
  Na: 141.2 meq/L
  PL: 191.5 mg/dL
  RALB: 2.4 g/dL
  TBIL: 0 mg/dL
  TC: 95 mg/dL
  TG: 283.8 mg/dL
  TP: 5.1 g/dL
  gamma-GTP: 4.2 IU/L
